How the values were obtained:
[1] = investigation of pH adjusters: amount added, pH and clearness of suspension; assay type: physicochemical
Protocol: The present inventors have investigated the amounts of di-sodium hydrogen phosphate, tri-sodium phosphate, potassium hydroxide and sodium hydroxide to add and the changes in pH thereby.
Di-sodium hydrogen phosphate dodecahydrate (80 g) was added to water (200 mL) and dissolved by heating. To the above suspension under stirring with a stirrer was added the aqueous solution of Di-sodium hydrogen phosphate dodecahydrate by 5 mL each and the pH was measured.
To the suspension under stirring with a stirrer was added an aqueous solution of […] (4 g/100 mL) by 5 mL portion each and the pH was measured.
To the suspension under stirring with a stirrer was added 1N aqueous solution of potassium hydroxide (0.5 mL portion each) and the pH of the solution was measured.
To the suspension under stirring with a stirrer was added 1N aqueous solution of sodium hydroxide (1 mL portion each) and the pH was measured.

[2] = stability of the drug products (pH and residual rate of freeze-dried products); assay type: physicochemical
Protocol: (i) an aqueous solution of tri-sodium phosphate dodecahydrate (36.4 mg/mL; 50 mL),
(ii) an aqueous solution of potassium hydroxide (56 mg/mL 6 mL),
(iii) an aqueous solution of sodium hydroxide (40 mg/mL; 5.6 mL)
(a) when the aqueous solutions were prepared,
(b) when the prepared aqueous solutions were filled in each vial (5 mL), freeze-dried and then dissolved in water (10 mL),
(c) when the prepared aqueous solution was filled in each vial (5 mL), freeze-dried and the drug product was left at 60 degrees Centigrade for two weeks (in case of sodium hydroxide for one month) and dissolved in water (10 mL).

[3] = amount of sodium hydroxide and stability in water/ethanol solution; assay type: physicochemical; conditions: pH over 8.5
Protocol: To the mixture added water in order to fill up to 5 mL of total solution.

[4] = change of pH in the time course on freeze-dried product comprising sodium carbonate; assay type: physicochemical
Protocol: (a) when the aqueous solution was prepared,
(b) when the prepared aqueous solution was filled in each vial (5 mL), freeze-dried and then dissolved in water (10 mL),
(c) when the prepared aqueous solution was filled in each vial (5 mL), freeze-dried and the formulation obtained was left at 60 degrees Centigrade for two weeks and dissolved in water (10 mL).

elastase = molecular target: T1, elastase (Homo sapiens, UniProt P08246); conditions: background statement; cited from earlier work
T1 sequence (P08246 30-267): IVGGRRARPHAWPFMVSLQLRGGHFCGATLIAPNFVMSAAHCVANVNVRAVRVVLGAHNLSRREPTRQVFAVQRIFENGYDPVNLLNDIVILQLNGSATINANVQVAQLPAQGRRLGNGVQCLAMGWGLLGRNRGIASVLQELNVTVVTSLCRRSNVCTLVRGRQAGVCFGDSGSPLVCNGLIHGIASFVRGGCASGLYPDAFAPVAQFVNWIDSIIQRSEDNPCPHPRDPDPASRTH

[5] = solubility of the compound (I) in normal solvents; assay type: physicochemical
[6] = admixing with amino acid infusion as replacement of pH adjusters; assay type: physicochemical; conditions: compound (I) 5 mg/mL admixed with KYORYOKU MORIAMINE infusion
[7] = investigation of a solution of high concentration; assay type: physicochemical; conditions: 400 mg compound (I), 100 mg mannitol, 24 mg sodium hydroxide, water to 5 mL
Protocol: To the mixture under stirring, was added IN aqueous solution of sodium hydroxide (0.6 mL: corresponds to 24 mg). Thereto was added water in order to fill up to 5 mL of total amount. […] Therefore it was impossible to freeze-dry the suspension.

[8] = formulation with sodium carbonate

SMILES: CC(C)(C)C(=O)Oc1ccc(S(=O)(=O)Nc2ccccc2C(=O)NCC(=O)[O-])cc1.[Na+] [compound (I), N-[o-(p-pivaloyloxybenzenesulfonylamino)benzoyl]glycine monosodium salt tetra-hydrate]
- pH when the suspension turned into a clear aqueous solution ([1]; 5 mL of 1N potassium hydroxide added): 7.20
- pH when the suspension turned into a clear aqueous solution ([1]; 7 mL of 1N sodium hydroxide added): 7.44
- pH when the suspension turned into a clear aqueous solution ([1]; 45 mL of tri-sodium phosphate dodecahydrate solution added): 7.19
- condition of the suspension (clear solution or not) ([1]; di-sodium hydrogen phosphate dodecahydrate solution 200 mL (80 g), pH 8.18): did not turn into a clear aqueous solution
- solubility ([2]; aqueous buffer, solvent exclusively water, with pH adjuster, read-out: solubility of the above solution (water with pH adjuster)): ~20 mg/mL
- residual rate of the compound (I) ([2]; freeze-dried product with sodium hydroxide, 60 degrees Centigrade, 1 month): 98.3%
- residual rate of the compound (I) [3]: over 98%
- pH (a) when the aqueous solution was prepared ([4]; formulation of JP kokai hei 5-194366 with sodium chloride and sodium carbonate): 7.80
- pH (b) freeze-dried and then dissolved in water (10 mL) [4, 8]: 8.11
- pH (c) freeze-dried, left at 60 degrees Centigrade for two weeks, dissolved in water (10 mL) [4, 8]: 8.44
- residual rate of the compound (I) ([4]; freeze-dried product with sodium carbonate, 60 degrees Centigrade, two weeks): 91.4%
- inhibitory activity against elastase (elastase): has an inhibitory activity against elastase
- solubility ([5]; ethanol, organic solvent or mixture, read-out: solubility in ethanol): < 6 mg/mL
- solubility ([5]; water, read-out: solubility in water): < 0.4 mg/mL
- pH after preparation [6]: 6.36
- pH after twenty-four hours [6]: 6.13
- residual rate of the compound (I) after twenty-four hours [6]: 54.1%
- condition of the mixture (clear solution or not) ([7]; ethanol 1.0 mL): clear solution
- condition of the mixture (clear solution or not) ([7]; no ethanol): did not turn into a clear solution but a white suspension

Source: US6552082B2, “Solution of N-[o-(p-pivaloyloxybenzenesulfonylamino)benzoyl] glycine monosodium salt tetra-hydrate and drug product thereof” (Ono Pharmaceutical Co., Ltd., priority 2000, dated 2003)
